Experimental data: paper PMC7093416, “Selective USP7 inhibition elicits cancer cell killing through a p53-dependent mechanism” (Scientific Reports, 2020)

System: MCF7 cells
Experiment: 3' DGE RNA-seq transcriptional profiling
Assay type: cell-based
Parameters: log2FoldChange: concentration or dose not given beside the values
Conditions: for log2FoldChange: gene ABCA12
Description: The DGE RNA sequencing was performed following the published method[39],[40] with modifications as described below. MCF7 cells were seeded in a 384 well plate at 2500 cells per well, allowed to adhere for 24 hours, then treated with two doses in triplicate of XL177A, XL177B, Nutlin-3, or DMSO. After 24 hours of treatment, an EL405x plate washer (BioTek) was used to aspirate the media and wash once with PBS. Cells were lysed in the plate with 10 µl of lysis buffer (1x Qiagen TCL, 1% BME) for 5 minutes at room temperature, then stored at −80 °C. Automated liquid handling was performed with assistance from ICCB-Longwood Screening Facility. A BRAVO Automated Liquid Handling Platform (Agilent) was used for RNA extraction as follows. The lysate was mixed and 10 µl was transferred to a 384 well PCR plate. 28 µl of homemade SPRI[66] (solid-phase reversible immobilization) beads were added to the lysate and mixed. After 5 minutes, the beads were pulled down by placing the plate on a magnet, then the beads were washed twice with 80% ethanol. Beads were air dried for 1 minute, then 20 µl of nuclease free water was added, the plate was removed from the magnet, and the beads were resuspended. After 5 minutes, the plate was placed back on the magnet to pull down the beads. The supernatant was transferred to a fresh 384 well plate. RNA quantity was checked with the Qubit Fluorometer and RNA quality was assessed using the Agilent BioAnalyzer RNA 6000 Pico Kit. The BRAVO platform was again used to transfer 5 µl of supernatant was transferred to a fresh 384 well plate with RT master mix and 1 µl of barcoded E3V6NEXT adapters for reverse transcription and template switching. The plate was incubated for 90 minutes at 42 °C, then cDNA was pooled, purified with the QIAquick PCR purification kit. The full-length cDNA was treated with Exonuclease I to remove excess primers for 30 minutes at 37 °C then amplified x5 cycles with Advantage 2 PCR Enzyme System using the SINGV6 primer. The amplified full-length cDNA was purified with Agencourt AMPure XP magnetic beads and quantitated by Qubit Fluorometer. The sequencing library was prepared using the Nextera DNA kit following the manufacturer’s instructions. Briefly, 55 ng of cDNA was tagmented for 5 minutes at 55 °C then purified using Zymo DNA Clean & Concetrator-5 column, then amplified x7 cycles and purified using a 0.9x ratio of AMPure XP magnetic beads. The library size distribution was assessed by Agilent BioAnalyzer HS DNA Kit before it was quantified by qPCR and sequenced on an Illumina NextSeq at the Biopolymers Facility at Harvard Medical School.
The bcbio-nextgen single cell RNA-seq analysis pipeline (https://bcbio-nextgen.readthedocs.io/en/latest/) was used to deconvolve the well barcodes and convert reads to counts. Any detected barcode that differed by more than one base from an expected barcode was removed. Unique reads were identified using unique molecular identifiers (UMIs) in order to remove PCR duplicates. The reads remaining after these filters were aligned to the transcriptome (GRCh38) using RapMap[67]. The R package DESeq. 2 version 1.20.0 (R version 3.5.1) was used for differential expression analysis.

Row | Structure (SMILES) | DREAM complex target genes (24 hours, low and high dose) | direct p53 target genes (24 hours, low and high dose) | log2FoldChange (concentration 0.1) | log2FoldChange (concentration 1) | hierarchical clustering of transcriptional profile (24 hours, 0.1 or 1 μM)
1 | CN1CCN(CCC(=O)Nc2ccc3c(=O)n(CC4(O)CCN(C(=O)[C@@H](CCCNC(=O)c5ccc6c(Cl)c7c(nc6c5)CCCC7)Cc5ccccc5)CC4)cnc3c2)CC1 [XL177A] | strongly downregulated the DREAM complex targets | strongly upregulated the p53 targets | 0.471 | 0.4983 | 
2 | CN1CCN(CCC(=O)Nc2ccc3c(=O)n(CC4(O)CCN(C(=O)[C@H](CCCNC(=O)c5ccc6c(Cl)c7c(nc6c5)CCCC7)Cc5ccccc5)CC4)cnc3c2)CC1 [XL177B] |  |  | 0.1473 | 0.2612 | clustered with the vehicle (DMSO)-treated control cells
3 | COc1ccc(C2=N[C@@H](c3ccc(Cl)cc3)[C@@H](c3ccc(Cl)cc3)N2C(=O)N2CCNC(=O)C2)c(OC(C)C)c1 [Nutlin-3A] |  | enriched for the direct p53 target genes |  |  | 
